Reference: EP3057951B1, “METHYLENE LINKED QUINOLINYL MODULATORS OF ROR-GAMMA-T” (Janssen Pharmaceutica NV, priority 2013, dated 2015)
Several values for one entry are separate records, joined by “and”; a condition that tells them apart may be missing. Equal entries are not always repeated. Where two headings read alike, the source gives them in different places.

How the values were obtained:
[1] = target: T1, wild type human RORγt ligand binding domain (RORyt LBD) (Homo sapiens, UniProt P51449); assay: RORγt ThermoFluor assay (thermal shift, binding affinity KD)
T1 construct: His-tag (N); TurboTEV protease cleavage site (ENLYFQG) (N); made in house; host or cells: E. coli (pHIS1, modified pET vector)
T1 sequence (P51449 258-518): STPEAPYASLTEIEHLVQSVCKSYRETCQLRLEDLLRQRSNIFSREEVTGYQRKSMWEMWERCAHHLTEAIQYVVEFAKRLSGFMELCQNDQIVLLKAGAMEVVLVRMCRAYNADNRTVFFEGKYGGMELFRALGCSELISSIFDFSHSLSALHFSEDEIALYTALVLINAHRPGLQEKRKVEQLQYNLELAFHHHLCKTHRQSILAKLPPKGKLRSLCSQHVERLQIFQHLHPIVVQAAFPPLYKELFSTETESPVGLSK

[2] = target: T2, wild type human RORγt LBD (Homo sapiens, UniProt P51449); assay: RORγt (LBD) Reporter Assay (GAL4-luciferase, HEK293T cells); assay type: cell-based; details: for inhibition at 6 µM: HEK-293T, read-out: RORγt (LBD) Reporter Assay, % inhibition @ 6 µM, 6 µM compound concentration; for RORγt (LBD) Reporter Assay, % inhibition @ 6 µM: 6 µM compound concentration
T2 construct: expressed in transfected cells; host or cells: HEK293T
T2 sequence (P51449 258-518): T1 sequence (P51449 258-518)

[3] = HEK293T cells, value after the comma with ∼, > or < could not be included in the average

In the case of `CN(C)c1nc2ccc(C(O)(c3ccc(C(F)(F)F)nc3)c3cncn3C)cc2c(Cl)c1Cc1ccc(-n2cccn2)cc1` (centres unmarked) [Example 132, {4-Chloro-2-(dimethylamino)-3-[4-(1H-pyrazol-1-yl)benzyl]quinolin-6-yl}(1-methyl-1H-imidazol-5-yl)[6-(trifluoromethyl)pyridin-3-yl]methanol], the Kd [1] is reported as 36 nM, the IC50 ([2]; HEK293T cells) is reported as 45 nM and the inhibition at 6 µM ([2]; HEK293T cells) is reported as 108%.

For `Cc1ccc(C(O)(c2ccc3nc(NC4CC4)c(Cc4ccc(C(F)(F)F)cc4)c(Cl)c3c2)c2cnnn2C)c(C)n1` (single isomer, unassigned) [Example 143c, {4-Chloro-2-(cyclopropylamino)-3-[4-(trifluoromethyl)benzyl]quinolin-6-yl}(2,6-dimethylpyridin-3-yl)(1-methyl-1H-1,2,3-triazol-5-yl)methanol], the Kd [1] was 2.2 nM, the “RORγt (LBD) Reporter Assay, % inhibition @ 6 µM” value (“RORγt … % inhibition @ 6 µM” below) ([2]; HEK293T cells) was 102% and the IC50 ([2]; HEK293T cells) was ~10 nM.

`COc1nc2ccc(C(O)(c3ccc(C)nc3C)c3cnnn3C)cc2c(Cl)c1Cc1ccc(N(C)C)cc1` (centres unmarked) [Example 24a, (4-Chloro-3-(4-(dimethylamino)benzyl)-2-methoxyquinolin-6-yl)(2,6-dimethylpyridin-3-yl)(1-methyl-1H-1,2,3-triazol-5-yl)methanol] gave a Kd [1] of 1.5 nM, an IC50 [2, 3] of 4.6 nM and an inhibition at 6 µM [2] of 100%.

`Cn1cncc1C(O)(c1ccc(C(F)(F)F)nc1)c1ccc2nc(-c3nccn3C)c(Cc3ccccc3)c(Cl)c2c1` (single isomer, unassigned) [Example 113b, (3-Benzyl-4-chloro-2-(1-methyl-1H-imidazol-2-yl)quinolin-6-yl)(1-methyl-1H-imidazol-5-yl)(6-(trifluoromethyl)pyridin-3-yl)methanol] gave a Kd [1] of 23000 nM, an IC50 ([2]; HEK293T cells) of ~6000 nM and an inhibition at 6 µM ([2]; HEK293T cells) of 58%.

With `COc1nc2ccc(C(O)(c3ccc(C#N)cc3)c3cncn3C)cc2c(Cl)c1Cc1ccc(C(F)(F)F)nc1` (centres unmarked) [Example 38a, 4-((4-Chloro-2-methoxy-3-((6-(trifluoromethyl)pyridin-3-yl)methyl)quinolin-6-yl)(hydroxy)(1-methyl-1H-imidazol-5-yl)methyl)benzonitrile] the Kd [1] was 55 nM, the IC50 [2, 3] was 1.9 nM and the inhibition at 6 µM [2] was 100%.

Work on `COc1nc2ccc(C(O)(c3ccc(C#N)cc3)c3cncn3C)cc2c(C#N)c1Cc1ccc(-n2cncn2)cc1` (single isomer, unassigned) [Example 15b, 3-(4-(1H-1,2,4-Triazol-1-yl)benzyl)-6-((4-cyanophenyl)(hydroxy)(1-methyl-1H-imidazol-5-yl)methyl)-2-methoxyquinoline-4-carbonitrile] yielded a Kd [1] of 140 nM, an IC50 [2, 3] of 410 nM and an inhibition at 6 µM [2] of 99%.

`COCCOc1nc2ccc(C(O)(c3ccc(Cl)cc3)c3cncn3C)cc2c(Cl)c1Cc1ccc(-n2cccn2)cc1` (centres unmarked) [Example 56] showed a Kd [1] of 200 nM, an IC50 [2, 3] of 450 nM and an inhibition at 6 µM [2] of 101%.

In the case of `COc1nc2ccc(C(O)(c3cnnn3C)c3cnc(C)n3C)cc2c(Cl)c1Cc1ccc(F)cc1` (racemic) [Example 65a], the Kd [1] is reported as 0.19 nM, the IC50 [2, 3] is reported as 9.9 nM and the inhibition at 6 µM [2] is reported as 74%.

With `COc1nc2ccc(C(O)(c3ccc(F)cc3)C3CCN(C(C)=O)CC3)cc2c(Cl)c1Cc1ccc(F)cc1` (single isomer, unassigned) [Example 51b, 1-(4-((4-Chloro-3-(4-fluorobenzyl)-2-methoxyquinolin-6-yl)(4-fluorophenyl)(hydroxy)methyl)piperidin-1-yl)ethanone] the Kd [1] was 3.9 nM, the “RORγt … % inhibition @ 6 µM” value [2] was 46% and the IC50 [2, 3] was 170 nM.

With `COc1nc2ccc(C(O)(c3ccccc3)C3CCN(C(C)=O)CC3)cc2c(Cl)c1Cc1ccc(-n2cncn2)cc1` (single isomer, unassigned) [Example 18c, 1-(4-((3-(4-(1H-1,2,4-Triazol-1-yl)benzyl)-4-chloro-2-methoxyquinolin-6-yl)(hydroxy)(phenyl)methyl)piperidin-1-yl)ethanone] the Kd [1] was 50 nM, the “RORγt … % inhibition @ 6 µM” value [2] was 91% and the IC50 [2, 3] was 88 nM.

With `Cn1cncc1C(O)(c1ccc(C(F)(F)F)nc1)c1ccc2nc(N3CCOCC3)c(Cc3ccc(-n4cccn4)cc3)c(Cl)c2c1` (single isomer, unassigned) [Example 146c, {4-Chloro-2-morpholin-4-yl-3-[4-(1H-pyrazol-1-yl)benzyl]quinolin-6-yl}(1-methyl-1H-imidazol-5-yl)[6-(trifluoromethyl)pyridin-3-yl]methanol] the Kd [1] was 600 nM, the “RORγt … % inhibition @ 6 µM” value ([2]; HEK293T cells) was 92% and the IC50 ([2]; HEK293T cells) was ~2000 nM.

In the case of `COc1nc2ccc(C(O)(c3ccc(C#N)cc3)c3cncn3C)cc2c(Cl)c1Cc1ccc(-n2cncn2)cc1` (single isomer, unassigned) [Example 14c, 4-((3-(4-(1H-1,2,4-Triazol-1-yl)benzyl)-4-chloro-2-methoxyquinolin-6-yl)(hydroxy)(1-methyl-1H-imidazol-5-yl)methyl)benzonitrile], the Kd [1] is reported as 5.5 nM, the “RORγt … % inhibition @ 6 µM” value [2] is reported as 106% and the IC50 [2, 3] is reported as 24 nM.

`COc1nc2ccc(C(O)(c3ccccc3)C3CCN(C(C)=O)CC3)cc2c(Cl)c1Cc1ccc(F)cc1` (centres unmarked) [Example 50, 1-(4-((4-Chloro-3-(4-fluorobenzyl)-2-methoxyquinolin-6-yl)(hydroxy)(phenyl)methyl)piperidin-1-yl)ethanone] gave a Kd [1] of 10 nM, an IC50 [2, 3] of ~4000 nM and an inhibition at 6 µM [2] of 82%.

Compound `Cc1cc(C(O)(c2ccc(Cl)cc2)c2cncn2C)cc2c(Cl)c(Cc3ccc(-n4cccn4)cc3)c(N3CCC3)nc12` (single isomer, unassigned) [Example 136b, {2-Azetidin-1-yl-4-chloro-8-methyl-3-[4-(1H-pyrazol-1-yl)benzyl]quinolin-6-yl}(4-chlorophenyl)(1-methyl-1H-imidazol-5-yl)methanol] has a Kd [1] of 2300 nM, an IC50 ([2]; HEK293T cells) of 1000 nM and an inhibition at 6 µM ([2]; HEK293T cells) of 83%.

`COc1nc2ccc(C(O)(c3cc(C)nc(C)c3)c3cnnn3C)cc2c(Cl)c1Cc1ccc(C(F)(F)F)cc1` (single isomer, unassigned) [Example 84b, (4-Chloro-2-methoxy-3-(4-(trifluoromethyl)benzyl)quinolin-6-yl)(2,6-dimethylpyridin-4-yl)(1-methyl-1H-1,2,3-triazol-5-yl)methanol] showed a Kd [1] of 180 nM, an IC50 [2, 3] of 210 nM and an inhibition at 6 µM [2] of 103%.

`COCCN(C)c1nc2ccc(C(O)(c3ccc(Cl)cc3)c3cncn3C)cc2c(Cl)c1Cc1ccc(-n2cccn2)cc1` (centres unmarked) [Example 127, {4-Chloro-2-[(2-methoxyethyl)(methyl)amino]-3-[4-(1H-pyrazol-1-yl)benzyl]quinolin-6-yl}(4-chlorophenyl)(1-methyl-1H-imidazol-5-yl)methanol] was tested, and the Kd [1] was 350 nM, the IC50 ([2]; HEK293T cells) was 240 nM and the inhibition at 6 µM ([2]; HEK293T cells) was 101%.

With `CCc1nc2ccc(C(O)(c3cnnn3C)c3cnc(C)n3C)cc2c(Cl)c1Cc1ccc(C(F)(F)F)cc1` (single isomer, unassigned) [Example 25c, (4-Chloro-2-ethyl-3-(4-(trifluoromethyl)benzyl)quinolin-6-yl)(1,2-dimethyl-1H-imidazol-5-yl)(1-methyl-1H-1,2,3-triazol-5-yl)methanol] the Kd [1] was 0.02 nM, the “RORγt … % inhibition @ 6 µM” value [2] was 99% and the IC50 [2, 3] was 2.1 nM.

For `Cc1ccc(C(O)(c2ccc3nc(Cl)c(Cc4ccc(C(F)(F)F)cc4)c(Cl)c3c2)c2cnnn2C)c(C)n1` (centres unmarked) [Example 139], the Kd [1] was 0.14 nM, the IC50 ([2]; HEK293T cells) was 20 nM and the inhibition at 6 µM ([2]; HEK293T cells) was 98%.

Compound `COc1nc2ccc(C(O)(c3cnnn3C)C3CNC3)cc2c(Cl)c1Cc1ccc(C(F)(F)F)cc1` (centres unmarked) [Example 124, Azetidin-3-yl(4-chloro-2-methoxy-3-(4-(trifluoromethyl)benzyl)quinolin-6-yl)(1-methyl-1H-1,2,3-triazol-5-yl)methanol] has a Kd [1] of 240 nM, an IC50 ([2]; HEK293T cells) of 670 nM and an inhibition at 6 µM ([2]; HEK293T cells) of 93%.

Work on `COc1nc2ccc(C(O)(c3sc(C)nc3C)c3cnnn3C)cc2c(Cl)c1Cc1ccc(-n2cccn2)cc1` (centres unmarked) [Example 21a, (3-(4-(1H-Pyrazol-1-yl)benzyl)4-chloro-2-methoxyquinolin-6-yl)(2,4-dimethylthiazol-5-yl)(1-methyl-1H-1,2,3-triazol-5-yl)methanol] yielded a Kd [1] of 0.31 nM, an IC50 [2, 3] of 6 nM and an inhibition at 6 µM [2] of 101%.

With `COc1nc2ccc(C(O)(c3ccc(F)cc3)C3CCN(C(C)=O)CC3)cc2c(Cl)c1Cc1ccc(F)cc1` (single isomer, unassigned) [Example 51c, 1-(4-((4-Chloro-3-(4-fluorobenzyl)-2-methoxyquinolin-6-yl)(4-fluorophenyl)(hydroxy)methyl)piperidin-1-yl)ethanone] the Kd [1] was 200 nM, the “RORγt … % inhibition @ 6 µM” value [2] was 4% and the IC50 [2, 3] was > 6000 nM.

`COc1nc2ccc(C(O)(c3ccc(C)nc3C)c3cncn3C)cc2c(Cl)c1Cc1ccc(C(F)(F)F)cc1` (racemic) [Example 88a, (4-Chloro-2-methoxy-3-(4-(trifluoromethyl)benzyl)quinolin-6-yl)(2,6-dimethylpyridin-3-yl)(1-methyl-1H-imidazol-5-yl)methanol] was tested, and the Kd [1] was 0.3 nM, the IC50 [2, 3] was 4.2 nM and ~20 nM and the inhibition at 6 µM [2] was 98%.

With `Cc1ccc(C(O)(c2ccc3nc(NC4CC4)c(Cc4ccc(C(F)(F)F)cc4)c(Cl)c3c2)c2cnnn2C)c(C)n1` (centres unmarked) [Example 143a, {4-Chloro-2-(cyclopropylamino)-3-[4-(trifluoromethyl)benzyl]quinolin-6-yl}(2,6-dimethylpyridin-3-yl)(1-methyl-1H-1,2,3-triazol-5-yl)methanol] the Kd [1] was 7.2 nM and the inhibition at 6 µM ([2]; HEK293T cells) was 101%.
